Key:
Experiment in all cases: relative viability (nuclei count vs DMSO), 5 days (fraction); higher = more cells survive
NCI-H727 = system: NCI-H727
Summary of the method: (§1)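 For relative viability, nuclei counts in treated wells were divided by those in vehicle wells. Lung cancer cell lines had been pin-tool dosed in 1536-well plates the day after seeding and cultured for 5 days, then fixed and stained in one step (final 0.05% Triton X-100, 1% formaldehyde, 1 ug/ml Hoechst) and imaged at 4×. Doses were one drug alone or a fixed anchor-drug dose plus five library-drug doses (not always all listed) in √10 steps, and values are duplicate-plate medians.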

LOU-NH91 = system: LOU-NH91
Summary of the method: as §1

NCI-H460 = system: NCI-H460
Summary of the method: as §1

ChaGo-K-1 = system: ChaGo-K-1
Summary of the method: as §1

EMC-BAC-2 = system: EMC-BAC-2
Summary of the method: as §1

NCI-H2126 = system: NCI-H2126
Summary of the method: as §1

NCI-H647 = system: NCI-H647
Summary of the method: as §1

NCI-H2347 = system: NCI-H2347
Summary of the method: as §1

NCI-H2405 = system: NCI-H2405
Summary of the method: as §1

NCI-H650 = system: NCI-H650
Summary of the method: as §1

HOP-62 = system: HOP-62
Summary of the method: as §1

NCI-H1437 = system: NCI-H1437
Summary of the method: as §1

LCLC-103H = system: LCLC-103H
Summary of the method: as §1

HCC-44 = system: HCC-44
Summary of the method: as §1

EPLC-272H = system: EPLC-272H
Summary of the method: as §1

NCI-H441 = system: NCI-H441
Summary of the method: as §1

NCI-H520 = system: NCI-H520
Summary of the method: as §1

NCI-H2009 = system: NCI-H2009
Summary of the method: as §1

NCI-H2023 = system: NCI-H2023
Summary of the method: as §1

SW 1573 = system: SW 1573
Summary of the method: as §1

NCI-H23 = system: NCI-H23
Summary of the method: as §1

Cc1cnc(-c2cnc(NCCNc3ccc(C#N)cn3)nc2-c2ccc(Cl)cc2Cl)[nH]1 + CC(C)C[C@H](NC(=O)[C@H](Cc1ccccc1)NC(=O)c1cnccn1)B(O)O [Bortezomib] (partner 0.002 µM) was tested, and the relative viability (NCI-H727; first compound 0.08 µM) was 0.877, the relative viability (NCI-H727; first compound 0.253 µM) was 0.808 and the relative viability (NCI-H727; first compound 0.8 µM) was 0.982. For the same compound, the relative viability (NCI-H727; first compound 2.53 µM) was 0.889, the relative viability (LOU-NH91; first compound 0.08 µM) was 0.488 and the relative viability (LOU-NH91; first compound 0.253 µM) was 0.519. The relative viability (LOU-NH91; first compound 0.8 µM) was 0.491, the relative viability (LOU-NH91; first compound 2.53 µM) was 0.491 and the relative viability (NCI-H460; first compound 0.08 µM) was 1.18. It also gave a relative viability (NCI-H460; first compound 0.253 µM) of 1, a relative viability (NCI-H460; first compound 0.8 µM) of 1.07 and a relative viability (NCI-H460; first compound 2.53 µM) of 0.968. It also gave a relative viability (ChaGo-K-1; first compound 0.08 µM) of 1.07, a relative viability (ChaGo-K-1; first compound 0.253 µM) of 0.886 and a relative viability (ChaGo-K-1; first compound 0.8 µM) of 0.598. For the same compound, the relative viability (ChaGo-K-1; first compound 2.53 µM) was 0.991, the relative viability (EMC-BAC-2; first compound 0.08 µM) was 1.17 and the relative viability (EMC-BAC-2; first compound 0.253 µM) was 1.07. It also gave a relative viability (EMC-BAC-2; first compound 0.8 µM) of 1.01, a relative viability (EMC-BAC-2; first compound 2.53 µM) of 1.07 and a relative viability (NCI-H2126; first compound 0.08 µM) of 1.09. For the same compound, the relative viability (NCI-H2126; first compound 0.253 µM) was 1.09, the relative viability (NCI-H2126; first compound 0.8 µM) was 1.12 and the relative viability (NCI-H2126; first compound 2.53 µM) was 1.15. It also gave a relative viability (NCI-H647; first compound 0.08 µM) of 0.943, a relative viability (NCI-H647; first compound 0.253 µM) of 0.836 and a relative viability (NCI-H647; first compound 0.8 µM) of 1.05. For the same compound, the relative viability (NCI-H647; first compound 2.53 µM) was 0.994, the relative viability (NCI-H2347; first compound 0.08 µM) was 0.812 and the relative viability (NCI-H2347; first compound 0.253 µM) was 0.914. The relative viability (NCI-H2347; first compound 0.8 µM) was 1.16, the relative viability (NCI-H2347; first compound 2.53 µM) was 1.13 and the relative viability (NCI-H2405; first compound 0.08 µM) was 0.68. The relative viability (NCI-H2405; first compound 0.253 µM) was 1.02, the relative viability (NCI-H2405; first compound 0.8 µM) was 0.967 and the relative viability (NCI-H2405; first compound 2.53 µM) was 0.98. It also gave a relative viability (NCI-H650; first compound 0.08 µM) of 0.707, a relative viability (NCI-H650; first compound 0.253 µM) of 0.819 and a relative viability (NCI-H650; first compound 0.8 µM) of 0.838. The relative viability (NCI-H650; first compound 2.53 µM) was 0.744, the relative viability (HOP-62; first compound 0.08 µM) was 1.18 and the relative viability (HOP-62; first compound 0.253 µM) was 0.772. It also gave a relative viability (HOP-62; first compound 0.8 µM) of 0.875, a relative viability (HOP-62; first compound 2.53 µM) of 0.907 and a relative viability (NCI-H1437; first compound 0.08 µM) of 0.536. It also gave a relative viability (NCI-H1437; first compound 0.253 µM) of 0.475, a relative viability (NCI-H1437; first compound 0.8 µM) of 0.451 and a relative viability (NCI-H1437; first compound 2.53 µM) of 0.472. It also gave a relative viability (LCLC-103H; first compound 0.08 µM) of 1.08, a relative viability (LCLC-103H; first compound 0.253 µM) of 1.04 and a relative viability (LCLC-103H; first compound 0.8 µM) of 0.983. It also gave a relative viability (LCLC-103H; first compound 2.53 µM) of 0.912, a relative viability (HCC-44; first compound 0.08 µM) of 0.851 and a relative viability (HCC-44; first compound 0.253 µM) of 0.855. For the same compound, the relative viability (HCC-44; first compound 0.8 µM) was 0.91, the relative viability (HCC-44; first compound 2.53 µM) was 0.932 and the relative viability (EPLC-272H; first compound 0.08 µM) was 0.938. The relative viability (EPLC-272H; first compound 0.253 µM) was 0.84, the relative viability (EPLC-272H; first compound 0.8 µM) was 0.834 and the relative viability (EPLC-272H; first compound 2.53 µM) was 0.903. For the same compound, the relative viability (NCI-H441; first compound 0.08 µM) was 0.688, the relative viability (NCI-H441; first compound 0.253 µM) was 0.352 and the relative viability (NCI-H441; first compound 0.8 µM) was 0.707. For the same compound, the relative viability (NCI-H441; first compound 2.53 µM) was 0.617, the relative viability (NCI-H520; first compound 0.08 µM) was 0.72 and the relative viability (NCI-H520; first compound 0.253 µM) was 0.551. It also gave a relative viability (NCI-H520; first compound 0.8 µM) of 0.473, a relative viability (NCI-H520; first compound 2.53 µM) of 0.523 and a relative viability (NCI-H2009; first compound 0.08 µM) of 1.02. For the same compound, the relative viability (NCI-H2009; first compound 0.253 µM) was 0.682, the relative viability (NCI-H2009; first compound 0.8 µM) was 1.07 and the relative viability (NCI-H2009; first compound 2.53 µM) was 0.891. For the same compound, the relative viability (NCI-H2023; first compound 0.08 µM) was 1.44, the relative viability (NCI-H2023; first compound 0.253 µM) was 0.651 and the relative viability (NCI-H2023; first compound 0.8 µM) was 1.01. For the same compound, the relative viability (NCI-H2023; first compound 2.53 µM) was 0.978, the relative viability (SW 1573; first compound 0.08 µM) was 1.09 and the relative viability (SW 1573; first compound 0.253 µM) was 0.899. It also gave a relative viability (SW 1573; first compound 0.8 µM) of 1.13, a relative viability (SW 1573; first compound 2.53 µM) of 0.925 and a relative viability (NCI-H23; first compound 0.08 µM) of 1.13. For the same compound, the relative viability (NCI-H23; first compound 0.253 µM) was 0.846, the relative viability (NCI-H23; first compound 0.8 µM) was 1.16 and the relative viability (NCI-H23; first compound 2.53 µM) was 1.13.

Source: the supplement of paper PMC10307832
